# Data from PMC6199744, “Development of Chemical Proteomics for the Folateome and Analysis of the Kinetoplastid Folateome” (ACS Infectious Diseases, 2018).
# Read-outs that look alike come from different tables or passages of the source.
# Legend:
# Type in all cases: binding
# [1] = biological target: T1, HeLa cell extract proteins (Homo sapiens, UniProt P06576)
# T1 construct: endogenous in cells; host or cells: HeLa cell extract
# [2] = biological target: T2, HeLa cell extract proteins (Homo sapiens, UniProt P13073)
# T2 construct: endogenous in cells; host or cells: HeLa cell extract
# T2 sequence (P13073 23-169): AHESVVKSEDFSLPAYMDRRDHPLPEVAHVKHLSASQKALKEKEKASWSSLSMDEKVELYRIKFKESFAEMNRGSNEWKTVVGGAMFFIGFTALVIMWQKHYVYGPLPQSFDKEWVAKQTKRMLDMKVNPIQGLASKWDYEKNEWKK
# [3] = biological target: T3, HeLa cell extract proteins (Homo sapiens, UniProt P13674)
# T3 construct: endogenous in cells; host or cells: HeLa cell extract
# T3 sequence (P13674 18-534): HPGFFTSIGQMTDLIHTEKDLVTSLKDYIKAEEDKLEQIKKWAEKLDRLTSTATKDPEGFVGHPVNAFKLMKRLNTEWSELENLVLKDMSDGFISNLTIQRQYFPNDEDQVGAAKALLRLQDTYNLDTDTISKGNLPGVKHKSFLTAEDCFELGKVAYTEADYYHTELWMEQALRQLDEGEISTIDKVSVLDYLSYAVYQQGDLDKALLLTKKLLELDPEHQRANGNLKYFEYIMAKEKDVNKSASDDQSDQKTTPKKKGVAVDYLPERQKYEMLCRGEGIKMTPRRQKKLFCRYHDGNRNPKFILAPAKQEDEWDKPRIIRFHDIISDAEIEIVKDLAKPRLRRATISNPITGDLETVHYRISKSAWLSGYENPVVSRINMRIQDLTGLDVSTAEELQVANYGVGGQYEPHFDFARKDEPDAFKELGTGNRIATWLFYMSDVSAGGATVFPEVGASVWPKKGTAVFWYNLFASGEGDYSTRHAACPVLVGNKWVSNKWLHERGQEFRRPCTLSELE
# [4] = biological target: T4, HeLa cell extract proteins (Homo sapiens, UniProt P31930)
# T4 construct: endogenous in cells; host or cells: HeLa cell extract
# T4 sequence (P31930 35-480): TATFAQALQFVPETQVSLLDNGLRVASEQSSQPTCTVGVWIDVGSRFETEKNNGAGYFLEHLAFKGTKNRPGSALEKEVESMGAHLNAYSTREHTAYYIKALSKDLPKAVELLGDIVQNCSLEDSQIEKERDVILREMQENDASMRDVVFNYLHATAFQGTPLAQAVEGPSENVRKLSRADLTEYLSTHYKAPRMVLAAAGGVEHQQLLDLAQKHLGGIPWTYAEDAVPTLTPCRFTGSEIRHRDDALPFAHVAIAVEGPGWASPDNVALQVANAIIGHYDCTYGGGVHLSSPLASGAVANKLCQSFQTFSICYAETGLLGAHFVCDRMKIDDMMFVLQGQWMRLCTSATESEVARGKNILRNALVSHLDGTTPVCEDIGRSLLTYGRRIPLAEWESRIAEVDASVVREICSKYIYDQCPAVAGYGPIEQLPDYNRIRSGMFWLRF
# [5] = biological target: T5, HeLa cell extract proteins (Homo sapiens, UniProt Q15366)
# T5 construct: endogenous in cells; host or cells: HeLa cell extract
# T5 sequence (Q15366 whole entry): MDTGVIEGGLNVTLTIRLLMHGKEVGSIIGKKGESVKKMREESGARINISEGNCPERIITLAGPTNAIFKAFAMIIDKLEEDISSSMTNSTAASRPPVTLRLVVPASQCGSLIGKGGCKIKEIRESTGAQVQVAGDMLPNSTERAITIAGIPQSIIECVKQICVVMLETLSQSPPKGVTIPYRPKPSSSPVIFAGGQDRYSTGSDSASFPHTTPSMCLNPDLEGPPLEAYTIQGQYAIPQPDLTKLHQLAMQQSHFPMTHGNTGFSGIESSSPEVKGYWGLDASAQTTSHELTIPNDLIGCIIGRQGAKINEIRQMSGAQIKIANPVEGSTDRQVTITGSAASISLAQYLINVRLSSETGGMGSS
# [6] = biological target: T6, HeLa cell extract proteins (Homo sapiens, UniProt Q7L1Q6)
# T6 construct: endogenous in cells; host or cells: HeLa cell extract
# T6 sequence (Q7L1Q6 1-419): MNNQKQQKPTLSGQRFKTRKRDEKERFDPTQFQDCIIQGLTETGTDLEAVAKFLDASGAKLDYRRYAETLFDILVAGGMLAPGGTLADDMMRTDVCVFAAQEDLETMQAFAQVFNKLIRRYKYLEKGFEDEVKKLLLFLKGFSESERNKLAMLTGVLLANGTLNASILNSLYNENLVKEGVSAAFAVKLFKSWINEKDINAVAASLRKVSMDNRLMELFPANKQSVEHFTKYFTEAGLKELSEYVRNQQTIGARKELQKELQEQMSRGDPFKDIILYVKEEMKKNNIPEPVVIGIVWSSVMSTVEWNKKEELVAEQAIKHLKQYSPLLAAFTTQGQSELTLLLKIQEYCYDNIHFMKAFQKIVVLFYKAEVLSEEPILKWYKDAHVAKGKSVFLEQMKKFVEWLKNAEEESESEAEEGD
# [7] = biological target: T7, HeLa cell extract proteins (Homo sapiens, UniProt Q9UBV8)
# T7 construct: endogenous in cells; host or cells: HeLa cell extract
# T7 sequence (Q9UBV8 1-284): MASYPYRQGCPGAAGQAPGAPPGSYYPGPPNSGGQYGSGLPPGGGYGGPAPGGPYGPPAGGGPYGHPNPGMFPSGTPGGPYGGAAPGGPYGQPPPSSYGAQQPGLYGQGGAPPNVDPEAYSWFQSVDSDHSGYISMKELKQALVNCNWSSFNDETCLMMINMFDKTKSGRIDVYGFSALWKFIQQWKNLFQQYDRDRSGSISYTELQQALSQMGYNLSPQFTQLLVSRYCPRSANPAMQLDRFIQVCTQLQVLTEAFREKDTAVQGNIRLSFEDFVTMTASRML
# [8] = biological target: T8, HeLa cell extract proteins (Homo sapiens, UniProt Q9ULK4)
# T8 construct: endogenous in cells; host or cells: HeLa cell extract
# T8 sequence (Q9ULK4 1-1368): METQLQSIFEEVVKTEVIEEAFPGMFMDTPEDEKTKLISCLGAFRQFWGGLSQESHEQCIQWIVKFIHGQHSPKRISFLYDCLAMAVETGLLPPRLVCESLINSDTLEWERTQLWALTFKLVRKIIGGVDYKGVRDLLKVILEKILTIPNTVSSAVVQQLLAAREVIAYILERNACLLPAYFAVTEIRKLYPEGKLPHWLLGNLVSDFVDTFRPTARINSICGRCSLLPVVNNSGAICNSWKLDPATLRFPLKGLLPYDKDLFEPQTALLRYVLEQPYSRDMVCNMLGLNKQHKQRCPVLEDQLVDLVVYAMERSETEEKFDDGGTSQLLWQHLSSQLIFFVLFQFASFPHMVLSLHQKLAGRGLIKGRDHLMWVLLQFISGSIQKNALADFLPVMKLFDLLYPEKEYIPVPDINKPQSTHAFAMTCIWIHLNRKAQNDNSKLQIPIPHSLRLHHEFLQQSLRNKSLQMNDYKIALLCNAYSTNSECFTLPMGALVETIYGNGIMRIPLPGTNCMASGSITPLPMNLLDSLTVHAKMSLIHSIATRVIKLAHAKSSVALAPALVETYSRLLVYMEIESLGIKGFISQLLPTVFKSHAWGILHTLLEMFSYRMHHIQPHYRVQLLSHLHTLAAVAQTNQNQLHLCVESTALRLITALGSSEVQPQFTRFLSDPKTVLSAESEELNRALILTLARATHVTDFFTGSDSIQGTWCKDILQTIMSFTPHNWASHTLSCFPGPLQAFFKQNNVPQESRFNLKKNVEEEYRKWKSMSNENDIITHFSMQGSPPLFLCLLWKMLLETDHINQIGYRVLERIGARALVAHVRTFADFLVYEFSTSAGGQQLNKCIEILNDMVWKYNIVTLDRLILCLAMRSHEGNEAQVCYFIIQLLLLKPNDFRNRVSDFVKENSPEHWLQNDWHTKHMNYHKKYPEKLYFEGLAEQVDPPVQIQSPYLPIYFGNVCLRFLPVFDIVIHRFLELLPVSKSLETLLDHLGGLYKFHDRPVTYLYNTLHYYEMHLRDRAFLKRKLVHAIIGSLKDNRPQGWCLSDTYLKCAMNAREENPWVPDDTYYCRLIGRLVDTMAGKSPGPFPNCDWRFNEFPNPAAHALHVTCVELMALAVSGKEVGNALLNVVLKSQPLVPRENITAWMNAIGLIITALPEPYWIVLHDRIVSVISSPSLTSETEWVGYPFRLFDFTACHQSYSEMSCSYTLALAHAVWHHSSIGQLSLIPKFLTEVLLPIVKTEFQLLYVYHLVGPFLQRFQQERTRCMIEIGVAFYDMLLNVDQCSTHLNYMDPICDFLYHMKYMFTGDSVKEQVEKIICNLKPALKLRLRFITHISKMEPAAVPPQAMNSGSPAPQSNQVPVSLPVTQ
# T1 sequence (P06576 48-529): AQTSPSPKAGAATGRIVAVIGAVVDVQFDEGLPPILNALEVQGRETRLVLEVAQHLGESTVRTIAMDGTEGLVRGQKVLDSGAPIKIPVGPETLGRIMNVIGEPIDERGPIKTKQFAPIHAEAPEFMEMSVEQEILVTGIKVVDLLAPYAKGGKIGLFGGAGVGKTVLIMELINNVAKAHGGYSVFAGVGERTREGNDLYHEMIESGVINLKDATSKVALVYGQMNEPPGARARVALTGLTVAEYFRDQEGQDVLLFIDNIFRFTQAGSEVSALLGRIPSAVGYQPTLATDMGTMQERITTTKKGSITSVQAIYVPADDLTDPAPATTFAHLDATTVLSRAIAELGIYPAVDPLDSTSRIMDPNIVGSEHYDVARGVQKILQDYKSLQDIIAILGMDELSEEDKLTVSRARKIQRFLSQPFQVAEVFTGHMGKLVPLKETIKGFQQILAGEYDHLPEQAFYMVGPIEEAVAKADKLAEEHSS
Structure (SMILES),"fold changes relative to vehicle control ([1]; HeLa, captured protein ATP5B)","fold changes relative to vehicle control ([2]; HeLa, protein COX4I1)","fold changes relative to vehicle control ([3]; HeLa, captured protein P4HA1)","fold changes relative to vehicle control ([4]; HeLa, captured protein UQCRC1)","fold changes relative to vehicle control ([5]; protein PCBP2, HeLa)","fold changes relative to vehicle control ([6]; HeLa, protein BZW1)","fold changes relative to vehicle control ([7]; HeLa, captured protein PEF1)","fold changes relative to vehicle control ([8]; HeLa, protein MED23)","fold changes relative to vehicle control ([1]; protein ATP5B, HeLa)","fold changes relative to vehicle control ([3]; HeLa, protein P4HA1)","fold changes relative to vehicle control ([4]; HeLa, protein UQCRC1)","fold changes relative to vehicle control ([6]; protein BZW1, HeLa)","fold changes relative to vehicle control ([7]; HeLa, protein PEF1)","fold changes relative to vehicle control ([8]; captured protein MED23, HeLa)",also measured
"Nc1nc2c(c(=O)[nH]1)N(C=O)C(CNc1ccc(C(=O)N[C@@H](CCC(=O)O)C(=O)O)cc1)CN2 (some centres unmarked) [LEU, leucovorin]",1.09,0.9,1.02,0.99,0.85,1.01,0.95,0.91,,,,,,,
"Nc1nc2[nH]cc(CCc3ccc(C(=O)N[C@@H](CCC(=O)O)C(=O)O)cc3)c2c(=O)[nH]1 [PTX, pemetrexed]",,,,,,,,,,,,,,,fold changes relative to vehicle control [1]: 1.07; fold changes relative to vehicle control [2]: 0.98; fold changes relative to vehicle control [3]: 0.88; fold changes relative to vehicle control [4]: 0.88; fold changes relative to vehicle control [5]: 1.03; fold changes relative to vehicle control [6]: 1.09; fold changes relative to vehicle control [7]: 0.99; fold changes relative to vehicle control [8]: 0.95
CCCCCCOc1ccc(Cc2cnc(N)nc2N)cc1 [compound 1],,1.03,,,0.96,,,,1.02,0.9,1.09,1.09,0.88,0.94,
CCCCCCOc1cccc(Cc2cnc(N)nc2N)c1 [compound 2],,1.21,,,1.28,,,,0.83,1.05,0.92,1.52,0.76,1.04,
Nc1nc2cccc(-c3ccccc3)c2n1Cc1ccc(Cl)c(Cl)c1 [compound 3],,1,,,0.91,,,,0.96,0.98,0.96,0.91,1.06,1.1,
NCCOCCOCC(=O)Nc1nc2ncc(CNc3ccc(C(=O)NC(CCC(=O)O)C(=O)O)cc3)nc2c(=O)[nH]1 (centres unmarked) [compound 6],0.96,1.04,1,0.95,1.04,1.21,0.87,0.93,,,,,,,
NCCCNc1ccc(C(=O)NC(CCC(=O)O)C(=O)O)cc1 (centres unmarked) [compound 7],1.04,1.17,1.04,0.99,0.96,0.98,0.99,0.97,,,,,,,
